In ChEMBL document CHEMBL1201862, “PubChem BioAssay data set” (2004):
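Each compound was tested at five concentrations against cells in 96-well plates for 48 hours. GI50 marks 50% less growth.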 The source made the active and inactive calls. No stated cut-off is given here; in the data, active = GI50 up to about 1.1 µM and inactive = higher.

Key:
Test in all cases: NCI tumour cell line growth inhibition, 48 h
[1] = system: 786-0
[2] = system: EKVX
[3] = system: HCT-116
[4] = system: HCT-15
[5] = system: Hs-578T
[6] = system: LOX IMVI
[7] = system: M14
[8] = system: MCF7
[9] = system: MDA-N
[10] = system: MOLT-4
[11] = system: NCI-H522
[12] = system: OVCAR-3
[13] = system: RPMI-8226
[14] = system: SF-295
[15] = system: SK-MEL-28
[16] = system: SK-MEL-2
[17] = system: U-251
[18] = system: UO-31
[19] = system: KM12
[20] = system: OVCAR-4

SMILES	GI50 [1]	GI50 [2]	GI50 [3]	GI50 [4]	GI50 [5]	GI50 [6]	GI50 [7]	GI50 [8]	GI50 [9]	GI50 [10]	GI50 [11]	GI50 [12]	GI50 [13]	GI50 [14]	GI50 [15]	GI50 [16]	GI50 [17]	GI50 [18]	GI50 [19]	GI50 [20]
NC(Cc1ccccc1)C(=O)OCN1C(=O)C2C3C=CC(C2C1=O)C1C(=O)N(COC(=O)C(N)Cc2ccccc2)C(=O)C31 (stereo unspecified)	35.7 µM (inactive)	> 100 µM (inactive)	42.5 µM (inactive)	27.4 µM	> 100 µM (inactive)	22 µM (inactive)	92 µM (inactive)	17.5 µM (inactive)	> 100 µM (inactive)	22.4 µM (inactive)	> 100 µM (inactive)	> 100 µM (inactive)	23.2 µM (inactive)	> 100 µM (inactive)	67.6 µM (inactive)	22.6 µM (inactive)	> 100 µM (inactive)	> 100 µM (inactive)		
S=C(N/N=C\C=N/NC(=S)N1CCCCC1)N1CCCCC1	0.525 µM (active)	0.515 µM (active)	0.124 µM (active)	0.0802 µM	0.879 µM (active)	0.32 µM (active)	0.208 µM (active)	0.466 µM (active)	> 26.1 µM (inactive)		0.608 µM (active)	0.251 µM (active)	0.433 µM (active)	0.155 µM (active)	0.682 µM (active)		0.207 µM (active)	0.195 µM (active)	0.54 µM (active)	
Cn1nnnc1SC(F)(F)c1nc2ccccc2o1	> 100 µM (inactive)		> 100 µM (inactive)	> 100 µM	> 100 µM (inactive)		> 100 µM (inactive)	> 100 µM (inactive)	> 100 µM (inactive)	24.1 µM (inactive)	> 100 µM (inactive)	> 100 µM (inactive)	> 100 µM (inactive)	> 100 µM (inactive)	> 100 µM (inactive)	> 100 µM (inactive)	> 100 µM (inactive)	> 100 µM (inactive)	35.9 µM (inactive)	> 100 µM (inactive)
CC1CC(=O)Nc2ccc(/N=N/N(C)C)cc2N1C=O (stereo unspecified)	> 100 µM (inactive)	> 100 µM (inactive)	> 100 µM (inactive)	> 100 µM	> 100 µM (inactive)		> 100 µM (inactive)	> 100 µM (inactive)	> 100 µM (inactive)	> 100 µM (inactive)	> 100 µM (inactive)	> 100 µM (inactive)	> 100 µM (inactive)	> 100 µM (inactive)	> 100 µM (inactive)	> 100 µM (inactive)	> 100 µM (inactive)	> 100 µM (inactive)	> 100 µM (inactive)	> 100 µM (inactive)
O=C(/C=C/c1ccc(OCc2ccccc2)cc1)NCc1ccc(C(=O)NCCc2c[nH]c3ccccc23)cc1	3.61 µM (inactive)	> 87.1 µM (inactive)	15.4 µM (inactive)	> 94 µM	6.35 µM (inactive)	44.3 µM (inactive)	27.8 µM (inactive)	17.1 µM (inactive)	> 100 µM (inactive)	> 59.8 µM (inactive)		29 µM (inactive)	> 100 µM (inactive)	3.41 µM (inactive)	74.5 µM (inactive)	31 µM (inactive)	4.37 µM (inactive)	35 µM (inactive)	63.8 µM (inactive)	7.76 µM (inactive)
O=C(CC(C(=O)c1ccco1)c1ccco1)c1ccco1 (stereo unspecified)	> 100 µM (inactive)	> 100 µM (inactive)	> 100 µM (inactive)		> 100 µM (inactive)	> 100 µM (inactive)	> 100 µM (inactive)	> 100 µM (inactive)	> 100 µM (inactive)	> 100 µM (inactive)	> 100 µM (inactive)	> 100 µM (inactive)	> 100 µM (inactive)	> 100 µM (inactive)	> 100 µM (inactive)		> 100 µM (inactive)	33.1 µM (inactive)	> 100 µM (inactive)	23.8 µM (inactive)
S=c1scc(-c2ccc(Cl)cc2)n1OC1CCCC1	37 µM (inactive)	28.1 µM (inactive)	22.2 µM (inactive)	21.8 µM	82.6 µM (inactive)	23.6 µM (inactive)	36.9 µM (inactive)	27 µM (inactive)	21.6 µM (inactive)	15.9 µM (inactive)	16.4 µM (inactive)	16.7 µM (inactive)		30.5 µM (inactive)	72.4 µM (inactive)	18.3 µM (inactive)	15.6 µM (inactive)	40.6 µM (inactive)	18.5 µM (inactive)	16.7 µM (inactive)
CC(=O)Oc1c2c(c3n(c1=O)CCCC3)C(=O)N(c1ccccc1)C2=O	> 100 µM (inactive)	94 µM (inactive)	> 100 µM (inactive)	59 µM	> 100 µM (inactive)	> 100 µM (inactive)	> 100 µM (inactive)	> 100 µM (inactive)	52.8 µM (inactive)	> 100 µM (inactive)	61.5 µM (inactive)	86.7 µM (inactive)		61 µM (inactive)	> 100 µM (inactive)	45.8 µM (inactive)	> 100 µM (inactive)	95.7 µM (inactive)	> 100 µM (inactive)	54.3 µM (inactive)
CN(C)Cc1cc(C(=O)/C=C/c2ccc(Cl)cc2)cc(CN(C)C)c1O	5.93 µM (inactive)	12.8 µM (inactive)	12.9 µM (inactive)	15.9 µM	17.5 µM (inactive)	4.43 µM (inactive)		14.4 µM (inactive)	10.4 µM (inactive)	16.3 µM (inactive)	3.24 µM (inactive)	3.06 µM (inactive)	7.89 µM (inactive)	13.3 µM (inactive)	13.4 µM (inactive)		13.4 µM (inactive)	7.4 µM (inactive)	4.17 µM (inactive)	
C/C(=N\N=C(\N)OB(F)F)c1ccccn1	40.4 µM (inactive)	18.5 µM (inactive)	58.5 µM (inactive)	93.8 µM	28.6 µM (inactive)	28.2 µM (inactive)	> 100 µM (inactive)	79.4 µM (inactive)	71.9 µM (inactive)		> 100 µM (inactive)	92 µM (inactive)		66.8 µM (inactive)	> 100 µM (inactive)	> 100 µM (inactive)	35.7 µM (inactive)	71.4 µM (inactive)	> 100 µM (inactive)	35 µM (inactive)
COc1cc([C@H]2c3[nH]c4ccccc4c3C[C@H]3COC(=O)N32)cc(OC)c1O	0.145 µM (active)	0.8 µM (active)	0.0344 µM (active)	0.0256 µM	0.0335 µM (active)	< 0.01 µM (active)	< 0.0386 µM (active)	< 0.01 µM (active)	< 0.01 µM (active)	0.0488 µM (active)	0.015 µM (active)	< 0.01 µM (active)	0.0404 µM (active)	0.0189 µM (active)	1.66 µM (inactive)		0.0326 µM (active)	0.246 µM (active)	0.0202 µM (active)	39.3 µM (inactive)
